Assay results as given in ChEMBL document CHEMBL1201861, “Genomics of Drug Sensitity in Cancer screening data, Wellcome Trust Sanger Institute”.

Tests used:
Assay in all cases: cells
KU812 cell line = assay type: functional, cell-based, Homo sapiens; settings: Homo sapiens, KU812;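 further: growth inhibition of KU812 cells, read out with a cell viability assay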
Description: SANGER: Inhibition of human KU812 cell growth in a cell viability assay.

KM-H2 = assay type: functional, cell-based, Homo sapiens; settings: Homo sapiens, KM-H2;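 further: growth inhibition of KM-H2 cells, read out by a cell viability assay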
Description: SANGER: Inhibition of human KM-H2 cell growth in a cell viability assay.

Mo = assay type: functional, cell-based, Homo sapiens; settings: Homo sapiens, Mo
Description: SANGER: Inhibition of human Mo-T cell growth in a cell viability assay.

ES8 = assay type: functional, cell-based, Homo sapiens; settings: Homo sapiens, ES8;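 further: growth inhibition of human ES8 cells, read out with a cell viability assay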
Description: SANGER: Inhibition of human ES8 cell growth in a cell viability assay.

CAS-1 = assay type: functional, cell-based, Homo sapiens; settings: Homo sapiens, CAS-1;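 further: growth inhibition of CAS-1 cells, measured with a cell viability assay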
Description: SANGER: Inhibition of human CAS-1 cell growth in a cell viability assay.

LB2241-RCC = assay type: functional, cell-based, Homo sapiens; settings: Homo sapiens, LB2241-RCC;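 further: cell viability assay measuring how strongly the cultured human renal carcinoma line is prevented from growing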
Description: SANGER: Inhibition of human LB2241-RCC cell growth in a cell viability assay.

HCC2157 = assay type: functional, cell-based, Homo sapiens; settings: Homo sapiens, HCC2157;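 further: growth inhibition of the cancer cell line, read out as cell viability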
Description: SANGER: Inhibition of human HCC2157 cell growth in a cell viability assay.

KLE = assay type: functional, cell-based; settings: Homo sapiens;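 further: growth inhibition of human KLE cells, read out with a cell viability assay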
Description: SANGER: Inhibition of human KLE cell growth in a cell viability assay.

KNS-42 = assay type: functional, cell-based; settings: Homo sapiens;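 further: growth inhibition of KNS-42 cells, read out with a cell viability assay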
Description: SANGER: Inhibition of human KNS-42 cell growth in a cell viability assay.

LB996-RCC = assay type: functional, cell-based, Homo sapiens; settings: Homo sapiens, LB996-RCC
Description: SANGER: Inhibition of human LB996-RCC cell growth in a cell viability assay.

LS-513 = assay type: functional, cell-based, Homo sapiens; settings: Homo sapiens, LS-513
Description: SANGER: Inhibition of human LS-513 cell growth in a cell viability assay.

SF-539 = assay type: functional, cell-based, Homo sapiens; settings: Homo sapiens, SF-539;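 further: Read-out is a cell viability assay, with IC50 reflecting inhibition of cell growth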
Description: SANGER: Inhibition of human SF539 cell growth in a cell viability assay.

GB-1 = assay type: functional, cell-based, Homo sapiens; settings: Homo sapiens, GB-1;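 further: growth of GB-1 cells judged by a viability assay, IC50 marks the concentration inhibiting growth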
Description: SANGER: Inhibition of human GB-1 cell growth in a cell viability assay.

SK-MEL-1 = assay type: functional, cell-based, Homo sapiens; settings: Homo sapiens, SK-MEL-1;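 further: growth inhibition of human SK-MEL-1 cells, read out by a cell viability assay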
Description: SANGER: Inhibition of human SK-MEL-1 cell growth in a cell viability assay.

EOL1 = assay type: functional, cell-based, Homo sapiens; settings: Homo sapiens, EOL1;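 further: growth inhibition of EoL-1 cells, read out by a cell viability assay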
Description: SANGER: Inhibition of human EoL-1-cell cell growth in a cell viability assay.

D-502MG = assay type: functional, cell-based, Homo sapiens; settings: Homo sapiens, D-502MG
Description: SANGER: Inhibition of human D-502MG cell growth in a cell viability assay.

J-RT3-T3-5 = assay type: functional, cell-based, Homo sapiens; settings: Homo sapiens, J-RT3-T3-5;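 further: cell viability assay measuring growth inhibition of human J-RT3-T3-5 cells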
Description: SANGER: Inhibition of human J-RT3-T3-5 cell growth in a cell viability assay.

COLO-684 = assay type: functional, cell-based, Homo sapiens; settings: Homo sapiens, COLO-684
Description: SANGER: Inhibition of human COLO-684 cell growth in a cell viability assay.

EW-16 = assay type: functional, cell-based, Homo sapiens; settings: Homo sapiens, EW-16;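 further: growth inhibition of human EW-16 cells, read out as cell viability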
Description: SANGER: Inhibition of human EW-16 cell growth in a cell viability assay.

SNU-C2B = assay type: functional, cell-based; settings: Homo sapiens;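 further: cell viability readout used to measure compound-driven suppression of SNU-C2B cell proliferation, IC50 marking half-maximal growth inhibition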
Description: SANGER: Inhibition of human SNU-C2B cell growth in a cell viability assay.

HCC2218 = assay type: functional, cell-based, Homo sapiens; settings: Homo sapiens, HCC2218;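 further: cell viability assay read-out, with IC50 given as the concentration that inhibits growth of the cell line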
Description: SANGER: Inhibition of human HCC2218 cell growth in a cell viability assay.

SK-UT-1 = assay type: functional, cell-based, Homo sapiens; settings: Homo sapiens, SK-UT-1;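 further: growth inhibition of SK-UT-1 cells, measured by a cell viability assay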
Description: SANGER: Inhibition of human SK-UT-1 cell growth in a cell viability assay.

HCE-T = assay type: functional, cell-based, Homo sapiens; settings: Homo sapiens, HCE-T;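 further: cell viability assay read-out, reporting inhibition of HCE-T cell growth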
Description: SANGER: Inhibition of human HCE-T cell growth in a cell viability assay.

CCRF-CEM = assay type: functional, cell-based, Homo sapiens; settings: Homo sapiens, CCRF-CEM;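 further: inhibition of CCRF-CEM cell growth, measured by a cell viability assay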
Description: SANGER: Inhibition of human CCRF-CEM cell growth in a cell viability assay.

SK-N-FI = assay type: functional, cell-based, Homo sapiens; settings: Homo sapiens, SK-N-FI;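 further: cell viability assay measuring growth inhibition of human SK-N-FI cells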
Description: SANGER: Inhibition of human SK-N-FI cell growth in a cell viability assay.

L-428 = assay type: functional, cell-based, Homo sapiens; settings: Homo sapiens, L-428
Description: SANGER: Inhibition of human L-428 cell growth in a cell viability assay.

DEL = assay type: functional, cell-based, Homo sapiens; settings: Homo sapiens, DEL;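 further: growth inhibition of the human DEL cell line, read out with a cell viability assay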
Description: SANGER: Inhibition of human DEL cell growth in a cell viability assay.

COLO-829 = assay type: functional, cell-based, Homo sapiens; settings: Homo sapiens, COLO-829
Description: SANGER: Inhibition of human COLO-829 cell growth in a cell viability assay.

SCC-15 = assay type: functional, cell-based, Homo sapiens; settings: Homo sapiens, SCC-15;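 further: growth inhibition of SCC-15 cells, read out with a cell viability assay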
Description: SANGER: Inhibition of human SCC-15 cell growth in a cell viability assay.

TGBC1TKB = assay type: functional, cell-based, Homo sapiens; settings: Homo sapiens, TGBC1TKB;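 further: growth inhibition of TGBC1TKB cells, read out by a cell viability assay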
Description: SANGER: Inhibition of human TGBC1TKB cell growth in a cell viability assay.

SW872 = assay type: functional, cell-based, Homo sapiens; settings: Homo sapiens, SW872;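 further: growth inhibition of SW872 cells, read out by a viability assay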
Description: SANGER: Inhibition of human SW872 cell growth in a cell viability assay.

NEC8 = assay type: functional, cell-based, Homo sapiens; settings: Homo sapiens, NEC8;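 further: growth inhibition of human NEC8 cells, read out by a cell viability assay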
Description: SANGER: Inhibition of human NEC8 cell growth in a cell viability assay.

RPMI-8866 = assay type: functional, cell-based, Homo sapiens; settings: Homo sapiens, RPMI-8866
Description: SANGER: Inhibition of human RPMI-8866 cell growth in a cell viability assay.

KARPAS-299 = assay type: functional, cell-based, Homo sapiens; settings: Homo sapiens, KARPAS-299
Description: SANGER: Inhibition of human KARPAS-299 cell growth in a cell viability assay.

SW982 = assay type: functional, cell-based; settings: Homo sapiens;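 further: growth inhibition of SW982 cells, read out with a cell viability assay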
Description: SANGER: Inhibition of human SW982 cell growth in a cell viability assay.

KM12 = assay type: functional, cell-based, Homo sapiens; settings: Homo sapiens, KM12;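 further: KM12 cell growth inhibition, read out with a cell viability assay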
Description: SANGER: Inhibition of human KM12 cell growth in a cell viability assay.

KGN = assay type: functional, cell-based, Homo sapiens; settings: Homo sapiens, KGN;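 further: growth inhibition of KGN cells, read out with a cell viability assay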
Description: SANGER: Inhibition of human KGN cell growth in a cell viability assay.

ATN-1 = assay type: functional, cell-based, Homo sapiens; settings: Homo sapiens, ATN-1;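 further: growth inhibition of human ATN-1 cells, read out with a cell viability assay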
Description: SANGER: Inhibition of human ATN-1 cell growth in a cell viability assay.

NCI-H1304 = assay type: functional, cell-based, Homo sapiens; settings: Homo sapiens, NCI-H1304;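 further: growth inhibition of the cancer cell line, measured in a cell viability assay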
Description: SANGER: Inhibition of human NCI-H1304 cell growth in a cell viability assay.

TE-5 = assay type: functional, cell-based, Homo sapiens; settings: Homo sapiens, TE-5;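 further: inhibition of cell growth, read out by a cell viability assay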
Description: SANGER: Inhibition of human TE-5 cell growth in a cell viability assay.

LB831-BLC = assay type: functional, cell-based, Homo sapiens; settings: Homo sapiens, LB831-BLC;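 further: growth inhibition of LB831-BLC cells, read out with a cell viability assay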
Description: SANGER: Inhibition of human LB831-BLC cell growth in a cell viability assay.

KARPAS-45 = assay type: functional, cell-based, Homo sapiens; settings: Homo sapiens, KARPAS-45;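 further: inhibition of cell line growth, read out through a viability assay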
Description: SANGER: Inhibition of human KARPAS-45 cell growth in a cell viability assay.

SHP77 = assay type: functional, cell-based, Homo sapiens, SHP-77; settings: Homo sapiens, SHP77;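 further: growth inhibition of human SHP-77 cells measured by a cell viability assay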
Description: SANGER: Inhibition of human SHP-77 cell growth in a cell viability assay.

SNU1 = assay type: functional, cell-based, Homo sapiens; settings: Homo sapiens, SNU1;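 further: growth inhibition of human NCI-SNU-1 cells, measured with a cell viability assay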
Description: SANGER: Inhibition of human NCI-SNU-1 cell growth in a cell viability assay.

MZ7-mel = assay type: functional, cell-based, Homo sapiens; settings: Homo sapiens, MZ7-mel;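 further: growth inhibition of human MZ7-mel cells, measured by a cell viability assay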
Description: SANGER: Inhibition of human MZ7-mel cell growth in a cell viability assay.

697 = assay type: functional, cell-based, Homo sapiens; settings: Homo sapiens
Description: SANGER: Inhibition of human 697 cell growth in a cell viability assay.

OVCAR-4 = assay type: functional, cell-based, Homo sapiens; settings: Homo sapiens, OVCAR-4;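 further: growth inhibition of human OVCAR-4 cells, measured with a cell viability assay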
Description: SANGER: Inhibition of human OVCAR-4 cell growth in a cell viability assay.

MFM-223 = assay type: functional, cell-based, Homo sapiens; settings: Homo sapiens, MFM-223
Description: SANGER: Inhibition of human MFM-223 cell growth in a cell viability assay.

Cc1ccc(-n2nc(C(C)(C)C)cc2NC(=O)Nc2ccc(OCCN3CCOCC3)c3ccccc23)cc1 [DORAMAPIMOD] gave an IC50 (KU812 cell line) greater than 10 µM, an IC50 (KM-H2) greater than 10 µM and an IC50 (Mo) greater than 10 µM. For the same compound, the IC50 (ES8) was greater than 10 µM, the IC50 (CAS-1) was greater than 10 µM and the IC50 (LB2241-RCC) was greater than 10 µM. For the same compound, the IC50 (HCC2157) was greater than 10 µM, the IC50 (KLE) was greater than 10 µM and the IC50 (KNS-42) was greater than 10 µM. For the same compound, the IC50 (LB996-RCC) was greater than 10 µM, the IC50 (LS-513) was greater than 10 µM and the IC50 (SF-539) was greater than 10 µM. The IC50 (GB-1) was greater than 10 µM, the IC50 (SK-MEL-1) was greater than 10 µM and the IC50 (EOL1) was 0.348 µM. For the same compound, the IC50 (D-502MG) was greater than 10 µM, the IC50 (J-RT3-T3-5) was greater than 10 µM and the IC50 (COLO-684) was greater than 10 µM. The IC50 (EW-16) was greater than 10 µM, the IC50 (SNU-C2B) was greater than 10 µM and the IC50 (HCC2218) was greater than 10 µM. The IC50 (SK-UT-1) was greater than 10 µM, the IC50 (HCE-T) was greater than 10 µM and the IC50 (CCRF-CEM) was greater than 10 µM. It also gave an IC50 (SK-N-FI) greater than 10 µM, an IC50 (L-428) greater than 10 µM and an IC50 (DEL) greater than 10 µM. It also gave an IC50 (COLO-829) greater than 10 µM, an IC50 (SCC-15) greater than 10 µM and an IC50 (TGBC1TKB) greater than 10 µM. The IC50 (SW872) was greater than 10 µM, the IC50 (NEC8) was greater than 10 µM and the IC50 (RPMI-8866) was greater than 10 µM. It also gave an IC50 (KARPAS-299) greater than 10 µM, an IC50 (SW982) greater than 10 µM and an IC50 (KM12) greater than 10 µM. For the same compound, the IC50 (KGN) was greater than 10 µM, the IC50 (ATN-1) was greater than 10 µM and the IC50 (NCI-H1304) was greater than 10 µM. For the same compound, the IC50 (TE-5) was greater than 10 µM, the IC50 (LB831-BLC) was greater than 10 µM and the IC50 (KARPAS-45) was greater than 10 µM. It also gave an IC50 (SHP77) greater than 10 µM, an IC50 (SNU1) of 9.07 µM and an IC50 (MZ7-mel) greater than 10 µM. It also gave an IC50 697 greater than 10 µM, an IC50 (OVCAR-4) greater than 10 µM and an IC50 (MFM-223) greater than 10 µM.

Work on NC1(c2ccc(-c3nc4ccn5c(=O)[nH]nc5c4cc3-c3ccccc3)cc2)CCC1 [MK-2206] yielded an IC50 (KU812 cell line) greater than 4 µM, an IC50 (KM-H2) greater than 4 µM and an IC50 (Mo) greater than 4 µM. For the same compound, the IC50 (ES8) was 2.49 µM, the IC50 (CAS-1) was greater than 4 µM and the IC50 (LB2241-RCC) was 0.997 µM. For the same compound, the IC50 (HCC2157) was 3.38 µM, the IC50 (KLE) was greater than 4 µM and the IC50 (KNS-42) was greater than 4 µM. It also gave an IC50 (LB996-RCC) greater than 4 µM, an IC50 (LS-513) of 2.33 µM and an IC50 (SF-539) greater than 4 µM. The IC50 (GB-1) was greater than 4 µM, the IC50 (SK-MEL-1) was greater than 4 µM and the IC50 (EOL1) was 3.07 µM. The IC50 (D-502MG) was greater than 4 µM, the IC50 (J-RT3-T3-5) was 0.744 µM and the IC50 (COLO-684) was 1.24 µM. It also gave an IC50 (EW-16) of 3.22 µM, an IC50 (SNU-C2B) greater than 4 µM and an IC50 (HCC2218) of 1.68 µM. The IC50 (HCE-T) was greater than 4 µM, the IC50 (CCRF-CEM) was greater than 4 µM and the IC50 (SK-N-FI) was greater than 4 µM. It also gave an IC50 (L-428) greater than 4 µM, an IC50 (DEL) greater than 4 µM and an IC50 (SCC-15) greater than 4 µM. The IC50 (TGBC1TKB) was greater than 4 µM, the IC50 (SW872) was greater than 4 µM and the IC50 (NEC8) was 0.0965 µM. For the same compound, the IC50 (RPMI-8866) was greater than 4 µM, the IC50 (KARPAS-299) was greater than 4 µM and the IC50 (SW982) was greater than 4 µM. It also gave an IC50 (KM12) greater than 4 µM, an IC50 (KGN) greater than 4 µM and an IC50 (ATN-1) greater than 4 µM. For the same compound, the IC50 (NCI-H1304) was greater than 4 µM, the IC50 (TE-5) was greater than 4 µM and the IC50 (LB831-BLC) was greater than 4 µM. For the same compound, the IC50 (KARPAS-45) was 0.373 µM, the IC50 (SHP77) was greater than 4 µM and the IC50 (SNU1) was greater than 4 µM. For the same compound, the IC50 (MZ7-mel) was greater than 4 µM, the IC50 697 was 1.38 µM and the IC50 (OVCAR-4) was greater than 4 µM. For the same compound, the IC50 (MFM-223) was 1.34 µM.

CN(C)CCOc1ccc(-c2nc(-c3ccncc3)c(-c3ccc4c(c3)CC/C4=N\O)[nH]2)cc1 [SB590885] gave an IC50 (KU812 cell line) greater than 5 µM, an IC50 (KM-H2) greater than 5 µM and an IC50 (Mo) greater than 5 µM. It also gave an IC50 (ES8) greater than 5 µM, an IC50 (CAS-1) greater than 5 µM and an IC50 (LB2241-RCC) greater than 5 µM. It also gave an IC50 (HCC2157) greater than 5 µM, an IC50 (KLE) greater than 5 µM and an IC50 (KNS-42) greater than 5 µM. For the same compound, the IC50 (LB996-RCC) was greater than 5 µM, the IC50 (LS-513) was greater than 5 µM and the IC50 (SF-539) was greater than 5 µM. It also gave an IC50 (GB-1) greater than 5 µM, an IC50 (SK-MEL-1) greater than 5 µM and an IC50 (EOL1) of 0.18 µM. For the same compound, the IC50 (D-502MG) was greater than 5 µM, the IC50 (J-RT3-T3-5) was greater than 5 µM and the IC50 (COLO-684) was greater than 5 µM. It also gave an IC50 (EW-16) greater than 5 µM, an IC50 (SNU-C2B) greater than 5 µM and an IC50 (HCC2218) of 1.06 µM. It also gave an IC50 (HCE-T) greater than 5 µM, an IC50 (CCRF-CEM) greater than 5 µM and an IC50 (SK-N-FI) greater than 5 µM. It also gave an IC50 (L-428) greater than 5 µM, an IC50 (DEL) greater than 5 µM and an IC50 (COLO-829) of 0.967 µM. The IC50 (SCC-15) was greater than 5 µM, the IC50 (TGBC1TKB) was greater than 5 µM and the IC50 (SW872) was greater than 5 µM. The IC50 (NEC8) was greater than 5 µM, the IC50 (RPMI-8866) was greater than 5 µM and the IC50 (KARPAS-299) was greater than 5 µM. The IC50 (SW982) was greater than 5 µM, the IC50 (KM12) was greater than 5 µM and the IC50 (KGN) was greater than 5 µM. It also gave an IC50 (ATN-1) greater than 5 µM, an IC50 (NCI-H1304) greater than 5 µM and an IC50 (TE-5) greater than 5 µM. It also gave an IC50 (LB831-BLC) greater than 5 µM, an IC50 (KARPAS-45) of 3.92 µM and an IC50 (SHP77) greater than 5 µM. It also gave an IC50 (SNU1) of 2.9 µM, an IC50 (MZ7-mel) greater than 5 µM and an IC50 697 greater than 5 µM. It also gave an IC50 (OVCAR-4) greater than 5 µM and an IC50 (MFM-223) greater than 5 µM.
